Assays:
[1] = system: Foxp3+, CD25+, CD4+ T-regulatory cells; experiment: T-regulatory recovery after depletion and treatment with TLR-ligands; details: for effect on thymopoeisis (suggested by day 10 spike in percent thymic T-reg): after T-regulatory depletion; for induction of T-regulatory recovery in the thymus and spleen: conclusion
[2] = system: T regulatory phenotype cells; design: species or system non-human primate; details: in vivo

Row | Molecule | effect on thymopoeisis (suggested by day 10 spike in percent thymic T-reg) [1] | induction of T-regulatory recovery in the thymus and spleen [1] | T-regulatory recovery in the thymus ([1]; day 10, summary) | percent Foxp3+, CD25+, CD4+ splenocytes versus untreated mice ([1]; day 17, T-reg depleted mice) | T-regulatory recovery in the spleen ([1]; day 17, summary) | percent Foxp3+, CD25+, CD4+ splenocytes versus untreated mice ([1]; day 10, T-reg depleted mice) | T-regulatory recovery in the spleen ([1]; day 10, summary) | T-reg recovery in the thymus ([1]; day 17, summary) | time of maximum depletion of % and number of T regulatory phenotype cells [2] | time until which depletion lasted [2]
1 | C=CCn1c(=O)n([C@@H]2O[C@H](CO)[C@@H](O)[C@H]2O)c2nc(N)[nH]c(=O)c21 [TLR-7 ligand, loxoribine] | have an effect on thymopoeisis | able to induce T-regulatory recovery | accelerated | significantly increased levels | accelerated | – | – | – | – | –
2 | Poly (I:C) [TLR-3 ligand] | have an effect on thymopoeisis | able to induce T-regulatory recovery | – | significantly increased levels | accelerated | significantly higher levels | accelerated | greater | – | –
3 | flagellin [TLR-5 ligand] | no effect | – | – | – | – | – | – | – | – | –
4 | daclizumab (antibody, chains of the INN, looked up, V domains shown) VH: QVQLVQSGAEVKKPGSSVKVSCKASGYTFTSYRMHWVRQAPGQGLEWIGYINPSTGYTEYNQKFKDKATITADESTNTAYMELSSLRSEDTAVYYCARGGGVFDYWGQGTLVTVSS VL: DIQMTQSPSTLSASVGDRVTITCSASSSISYMHWYQQKPGKAPKLLIYTTSNLASGVPARFSGSGSGTEFTLTISSLQPDDFATYYCHQRSTYPLTFGQGTKVEVK | – | – | – | – | – | – | – | – | 2 weeks | 4 weeks
